Data taken from patent EP3906926A1, “PROLINE HYDROXYLASE INHIBITORS FOR USE IN THE SKELETAL MUSCLE REGENERATION” (Policlinico San Donato S.p.A.- Istituto di Ricovero e Cura …, priority 2020, dated 2021).

Assays:
VEGF = test: qPCR of HIF-1α target gene VEGF; type: cell-based, murine; conditions: PLG at EC50 (250 µM), 24 hours
Method: (§1) Total RNA was isolated using ReliaPrep™ RNA Miniprep Systems (Promega), and reverse transcribed to cDNA using the iScript cDNA synthesis kit (BioRad), according to the Manufacturer's instructions. Real-Time Quantitative PCR was performed on 10 ng of cDNA template, 0.2 µM primers, and GoTaq® qPCR Master Mix (Promega) in 20 µl final volume using a StepOnePlus® Real-Time PCR System (Applied Biosystem). […] RPL13 was used as the housekeeping gene. The amplification program consisted in an initial denaturation at 95°C for 3 minutes, followed by 40 cycles of 5 seconds each at 95°C and 30 seconds at 57°C; WNT7a was amplified at 53°C. Relative quantification of target genes was performed in triplicate and calculated by the equation 2^-ΔΔCt.
as §1, with “ReliaPrepTM” for “ReliaPrep™”, “2-ΔΔCt.” for “2^-ΔΔCt.”

murine myoblasts C2C12 = test: Skeletal muscle differentiation, MHC immunofluorescence (fusion and differentiation indexes); type: cell-based; conditions: 250 µM PLG 24 hours in GM, then 7 days in DM without inhibitor; vs untreated controls
Method: (§2) The DM was changed every day for 7 days. Cells were analyzed at 24 hours post-treatment (PT), at 3rd and 7th days of skeletal muscle differentiation.
After differentiation for 7 days in DM, cells were washed with phosphate saline buffer (PBS) and fixed for 15 minutes in 4% (w/v) paraformaldehyde at room temperature. For permeabilization and blocking, cells were incubated for 1 hour in the presence of PBS 0.1% (v/v) Triton X-100 (TX-100, Merck) and 5% (w/v) FBS (Merck) at room temperature. […] After incubation, cells were washed three times in PBS and incubated for 1 hour at room temperature with an anti-mouse FITC-conjugated secondary antibody (Jackson ImmunoResearch), diluted 1:200. […] Myogenesis was assessed by measuring the myotube area and the number of myonuclei per myotube using a fluorescent microscope (Olympus TH4-200) equipped with an acquisition camera. To quantify both differentiation and fusion indexes, ten fields were chosen randomly and, for each field, a minimum of one hundred myosin-positive myotubes with more than two myonuclei were measured using the ImageJ v1.49o software. The area and the number of nuclei per myotube was the mean of ten measurements averaged from three different experiments.
as §2

MyoD = test: Western blot of MyoD nuclear localization; type: cell-based, murine; conditions: 250 µM PLG for 24 hours
Method: (§3) For nuclei separation, 5 x 10^6 cells were collected after enzymatic digestion with trypsin (Merck), centrifuged at the maximum speed, resuspended in 400 µl of Buffer A (10 mM KCl, 0.1 mM EDTA, 1 mM DTT, 10 mM Hepes, pH 7.9), containing protease and phosphatase inhibitors cocktail (Merck), and incubated on ice for 20 minutes. Then, 10% NP40 was added to the cell suspension, mixed for 40 seconds, and centrifuged 40 seconds at the maximum speed. After centrifugation, the pellet was resuspended in 80 µl of Buffer C (0.4M NaCl, 1 mM EDTA, 1 mM DTT, 20 mM Hepes, pH 7.9), containing a protease and phosphatase inhibitors cocktail, and then mixed for 30 minutes at 4°C at the maximum speed. Finally, the nuclear suspension was centrifuged for 5 minutes at 4°C at the maximum speed, collected and transferred in a new tube. The total protein content was determined with the BCA Protein Assay Kit (Pierce), according to the manufacturer's instructions.
(§4) Proteins were denaturated by boiling for 10 minutes in sample buffer (0.6 g/100 mL Tris, 2 g/100 mL SDS, 10% glycerol, 1% 2-mercaptoethanol, pH 6.8) and loaded into 10% SDS-PAGE gel, then transferred onto a nitrocellulose membrane (Trans-blot, Bio-Rad Laboratories) by electroblotting. Nitrocellulose membranes were incubated with a blocking solution containing 5% (w/v) non-fat dry milk or 5% (w/v) BSA (Merck) in Tris-buffer saline with 0.1% Tween® 20 (TBS-T) for 1 hour. […] Membranes were washed three times for 10 minutes with TBS-T, and then incubated with the appropriate anti-mouse, anti-rabbit, or anti-goat HRP-conjugated secondary antibodies (Dako, Agilent Technologies), 1:2000 dilution, for 1 hour at room temperature. After three washes for 10 minutes with TBS-T, the immunoreactive bands were visualized using the enhanced chemiluminescence detection kit reagents (ECL Advance, GeHealthcare), according to the manufacturer's instructions.
as §3, with “For total proteins extraction, 7.5 x 10^4 cells were seeded and harvested at 7th days of skeletal muscle differentiation, as previously described. Cells were collected after enzymatic digestion with trypsin (Merck), lysed by sonication and centrifuged at 800 xg for 10 minutes. Supernatant was used to determine total protein content with the BCA Protein Assay Kit (Pierce), according to the manufacturer's instructions. For” for “For”, “(0.4 M” for “(0.4M”

HIF-1α = test: Western blot of HIF-1α nuclear translocation; type: cell-based, murine; conditions: PLG at EC50 (250 µM) for 24 hours, vs untreated control; Lamin A/C housekeeper
Method: as §3, §4
as §3, with “For total proteins extraction, 7.5 x 10^4 cells were seeded and harvested at 7th days of skeletal muscle differentiation, as previously described. Cells were collected after enzymatic digestion with trypsin (Merck), lysed by sonication and centrifuged at 800 xg for 10 minutes. Supernatant was used to determine total protein content with the BCA Protein Assay Kit (Pierce), according to the manufacturer's instructions. For” for “For”, “(0.4 M” for “(0.4M”

C2C12 murine myoblasts [1] = test: RealTime-Glo MT Cell Viability Assay; conditions: at EC50 concentration (250 µM), 24 hours
Method: RealTime-Glo™ kits MT Cell Viability Assay (Promega) was used to investigate the effects of IOX2 and FG-4592 treatment on cell viability. Briefly, 5 x 10^3 C2C12 murine myoblasts were seeded in a 96 well plate and incubated for 24 hours (T0) with MT Cell Viability Substrate (1:1000 dilution) and NanoLuc® Enzyme (1:1000 dilution). Then, 50 µM IOX2 or 40 µM FG-4592 were added to the cell cultures and incubated for other 24 hours before luminescence analysis.
RealTime-Glo™ kits MT Cell Viability Assay (Promega) was used to investigate the effects of PLG treatment on cell viability. Briefly, 5 x 10^3 C2C12 murine myoblasts were seeded in a 96 well plate and incubated for 24 hours (T0) with MT Cell Viability Substrate (1:1000 dilution) and NanoLuc® Enzyme (1:1000 dilution). Then, each PLG inhibitor was added at its EC50 to the cell cultures and incubated for other 24 hours before luminescence analysis.

PHD2 = test: qPCR of HIF-1α target gene PHD2; type: cell-based, murine; conditions: PLG at EC50 (250 µM), 24 hours
Method: as §1
as §1, with “ReliaPrepTM” for “ReliaPrep™”, “2-ΔΔCt.” for “2^-ΔΔCt.”

MHC = test: qPCR of MHC during differentiation; type: cell-based, murine; conditions: day 7 of differentiation, 250 µM PLG pre-treated myoblasts
Method: as §1
as §1, with “ReliaPrepTM” for “ReliaPrep™”, “2-ΔΔCt.” for “2^-ΔΔCt.”

Myogenin = test: qPCR of Myogenin during differentiation; type: cell-based, murine; conditions: day 3 of differentiation, 250 µM PLG pre-treated myoblasts
Method: as §1
as §1, with “ReliaPrepTM” for “ReliaPrep™”, “2-ΔΔCt.” for “2^-ΔΔCt.”

C2C12 murine myoblasts [2] = test: CellTox Cytotoxicity Assay; conditions: at EC50 concentration (250 µM), 24 hours
Method: To assess PHDs inhibitors cytotoxicity, 5 x 10^3 C2C12 murine myoblasts were seeded in a 96-well plate.

PHDs = test: ODD-luciferase reporter assay (Dual-Glo) for PHDs inhibition; conditions: C2C12 myoblasts transfected with ODD-luciferase-pcDNA3; 24 hours at 50, 100, 250, 500, 1000 µM, normoxic conditions; linear regression
Method: The IC50 was calculated using a Dual-Glo® Luciferase Assay System kit (Promega) that allows a high-throughput analysis of mammalian cells containing the Firefly (Luciferase-pcDNA3, ODD-Luciferase-pcDNA3) and Renilla (pRL-CMV) luciferase reporters. Briefly, 5 x 10^3 cells per well were seeded in a 96-well plate, and then transfected for 24 hours with a Luciferase-pcDNA3 or an ODD-Luciferase-pcDNA3 (80 ng), containing the firefly gene reporter. A co-transfection with pRL-CMV (8 ng), containing the renilla gene reporter, was performed as an internal control, according to the ViaFect Transfection Reagent® protocol (Promega). After transfection, cells were treated with 10, 25, 50, and 100 µM IOX2 or FG-4592 (R oxadustat) for 24 hours, and then an equal volume of Dual-Glo® Luciferase Reagent was added to each well, incubated at room temperature for 30 minutes, and then analyzed with a Varioskan™ LUX Multimode Microplate Reader (ThermoFisher Scientific). Then, an equal volume of Dual-Glo® Stop & Glo® Reagent was added to each well in order to quench the luminescence from the firefly reaction and to provide the substrate for the renilla luciferase. The mixture was incubated for 30 minutes before analysis. The IC50 values were calculated by linear regression.
To this purpose, the IC50 of both compounds was determined by transiently co-transfecting C2C12 myoblasts with the ODD-luciferase-pcDNA3 plasmid, containing the Oxygen Dependent Domain (ODD) of HIF-1α, and with the pRL-CMV plasmid, as the internal control (Figure 4, panel A). Then, transfected cells were treated for 24 hours with IOX2 or FG-4592 at different concentrations (10, 25, 50, and 100 µM) under normoxic conditions, and the emitted luminescence was collated to untreated controls.
The EC50 was calculated using a Dual-Glo® Luciferase Assay System kit (Promega) that allows a high-throughput analysis of mammalian cells containing the Firefly (Luciferase-pcDNA3, ODD-Luciferase-pcDNA3) and Renilla (pRL-CMV) luciferase reporters. Briefly, 5 x 10^3 cells per well were seeded in a 96-well plate, and then transfected for 24 hours with a Luciferase-pcDNA3 or an ODD-Luciferase-pcDNA3 (80 ng), containing the firefly gene reporter. A co-transfection with pRL-CMV (8 ng), containing the renilla gene reporter, was performed as an internal control, according to the ViaFect Transfection Reagent® protocol (Promega). […] Then, an equal volume of Dual-Glo® Stop & Glo® Reagent was added to each well in order to quench the luminescence from the firefly reaction and to provide the substrate for the renilla luciferase. The mixture was incubated for 30 minutes before analysis. The EC50 values were calculated by linear regression.
The EC50 of each compound was determined by transiently co-transfecting C2C12 myoblasts with the ODD-luciferase-pcDNA3 plasmid, containing the Oxygen Dependent Domain (ODD) of HIF-1α, and with the pRL-CMV plasmid, as the internal control (Figure 12, panel A).

Row | Structure (SMILES) | enhancement of VEGF (VEGF) [fold] | fusion index (murine myoblasts C2C12) | increase in the differentiation index (murine myoblasts C2C12) [fold] | increase of the nuclear localization of MyoD (MyoD) [fold] | HIF-1α nuclear translocation, protein increase (HIF-1α) [fold] | decrease in the proliferation rate (C2C12 murine myoblasts [1]) [%] | increase of PHD2 (PHD2) | enhancement of MHC (MHC) [fold] | increase of Myogenin (Myogenin) [fold] | Cell toxicity (C2C12 murine myoblasts [2]) | EC50 (PHDs)
1 | O=C(O)CCC(=O)NNC(=O)c1cc2ccccc2cn1 [PLG2] | 1.1 | no significant changes | 1.15 | 1.2 | 1.3 | 20 | no significant changes | 1.3 | 1.2 | not due to a toxic effect | 250 µM
2 | O=C(O)CCC(=O)NNC(=O)c1cc2c(cn1)[nH]c1ccccc12 [PLG6] | – | – | – | – | – | – | – | – | – | – | undetectable
3 | COC(=O)CCC(=O)NNC(=O)c1cc2c(cn1)[nH]c1ccccc12 [PLG8] | 1.6 | no significant changes | 1.15 | 1.4 | 1.5 | 60 | 1.8 fold | 1.5 | 1.4 | not due to a toxic effect | 250 µM
4 | COC(=O)CCC(=O)NNC(=O)c1cc2ccccc2cn1 [PLG11] | 1.2 | no significant changes | 1.2 | 1.3 | 1.5 | 17 | 1.3 fold | 1.4 | 1.4 | not due to a toxic effect | 250 µM
5 | CN(C)c1ccnc(C(=O)NNC(=O)CCC(=O)O)c1 [PLG19] | – | – | – | – | – | – | – | – | – | – | undetectable
6 | COC(=O)CCC(=O)NNC(=O)c1cc(N(C)C)ccn1 [PLG23] | – | – | – | – | – | – | – | – | – | – | undetectable
